Measured values from ChEMBL document CHEMBL4837246 (J Med Chem, 2021).

What was measured:
in vivo [1] = settings: Wistar, rat, po, 0.6 mg/kg
in vivo [2] = settings: Wistar, rat, iv, 0.3 mg/kg
in vivo [3] = settings: Wistar, rat, po, 0.6 mg/kg; remark: listed apart in the source
in vivo [4] = settings: mouse, iv, 0.3 mg/kg
in vivo [5] = settings: mouse, iv, 0.3 mg/kg; remark: listed apart in the source
in vivo [6] = settings: Wistar, rat, iv, 0.3 mg/kg; remark: listed apart in the source
in vivo [7] = settings: Wistar, rat, iv, 0.3 mg/kg; remark: listed apart in the source
in vivo [8] = settings: mouse, iv, 0.3 mg/kg; remark: listed apart in the source

In the case of `FC(F)c1cncc(-c2ccc3ncc4nnc(C5=CCCOCC5)n4c3c2)c1`, the bioavailability at 24 h (in vivo [1]) is reported as 22%, the half-life at 24 h (in vivo [2]) is reported as 50.4 min and the half-life at 24 h (in vivo [3]) is reported as 240 min. For the same molecule, the clearance at 24 h (in vivo [4]) was 135 mL/min/kg, the half-life at 24 h (in vivo [5]) was 40.8 min and the Vd at 24 h (in vivo [6]) was 1.8 L/kg. For the same molecule, the clearance at 24 h (in vivo [7]) was 36.7 mL/min/kg and the Vd at 24 h (in vivo [8]) was 3.7 L/kg.
